These results are taken from US10994015B2, “EGFR proteolysis targeting chimeric molecules and associated methods of use” (Arvinas Operations, Inc., priority 2016, dated 2021).

Experiment [1] has as its target EGFR L858R/T790M double mutant (H1975) (Homo sapiens (Human), UniProt P00533, L858R/T790M). Briefly: EGFR protein degradation assay (Western blot). The experiment is classed as cell-based. As to conditions: 72 hours, 300 nM to 10 nM. The protocol:
(§1) EGFR Protein Degradation assay
Cells expressing the appropriate form of EGFR were seeded in 6-well plates (300,000 cells per well) and allowed to adhere to the plate overnight. […] To harvest cells, media was removed and cells were washed once with ice-cold phosphate-buffered saline (PBS) prior to the addition of 400 μl lysis buffer (Cell Signaling Technology) supplemented with a protease inhibitor cocktail (Thermo Scientific). Cells were scraped from the plate and the cell lysate transferred to an Eppendorf tube and then clarified by a single spin at 10 000 rpm for 10 minutes. The protein concentration of each lysate was determined (BCA kit, Thermo Scientific) prior to the addition of loading buffer (Invitrogen) and reducing agent (Invitrogen). 10 μg protein of each lysate was loaded on an SDS/PAGE gel and run at 165V for 2 hours. Following transfer to a PVDF membrane (iBlot2, Thermo Fisher Scientific), the membrane was blocked in Tris-buffered saline containing 0.1% Tween-20 (TBS-T) and supplemented with 5% powdered milk for 1 hour. Membranes were then probed with EGFR and tubulin (loaded control) primary antibodies in TBS-T containing 3% bovine serum albumin (BSA) overnight at 4° C. Membranes were washed thrice with TBS-T before incubation with secondary antibody in TBS-T containing 3% bovine serum albumin (BSA) and incubated for 1 hour at room temperature. Following 3 further washes with TBS, membrane proteins of interest were detected by enzyme-linked chemiluminescence (ECL) using a Chemidoc (Bio-Rad).

In experiment [2] the target is EGFR L858R/T790M/C797S triple mutant (H520*) (Homo sapiens (Human), UniProt P00533, C797S/L858R/T790M). Briefly: EGFR protein degradation assay (Western blot). The following applies: 72 hours, 300 nM to 10 nM. The experiment is classed as cell-based. The method, then: as §1
Cells were incubated overnight at 37° C., 5% CO2 prior to compound addition. A 10 mM compound stock in DMSO was serially diluted in DMSO to provide the following stock concentrations: 1, 0.3, 0.1, 0.03 and 0.01 mM. An appropriate volume of each compound dilution, together with a DMSO vehicle control, was added to media to provide a 2× compound solution. […] At the end of the compound treatment, cells were washed once with ice-cold phosphate-buffered saline (PBS) and treated with lysis solution (1× lysis buffer, Cell Signaling Technologies (CST #9803) supplemented with Piarce™ protease inhibitors, #A32953, Thermo Fisher Scientific, TFS). Lysates were collected and clarified of cell debris by spinning at 10K rpm for 10 minutes. A specific volume of supernatant was retrieved for protein quantification (Pierce™ BCA kit, TFS #23225) and for Western analysis. Loading buffer supplemented with EDTA and reducing agent was added to each supernatant. A specific volume of supernatant (determined by protein assay: […] loaded per sample) was loaded into a NuPAGE™ 4-12% Bis-Tris gel (TFS). Samples were run at 165V in MOPS running buffer for 2 hours and then transferred to PVDF blotting membrane using a dry blotting system (iBlot2, TFS). Membranes were blocked in Tris-buffered saline supplemented with Tween, 0.1% (TBST) containing 5% non-fat dry milk, (AmericanBio). Following block, membranes were washed once with TBST. […] Membranes were washed 3× with TBST prior to addition of secondary antibody (1:10 000, anti-rabbit HRP-linked, CST #7074) in TBST with 3% BSA and then incubated at room temperature for one hour. Membranes were then washed 3× with TBS and signal developed by exposure to developer (SuperSignal West Femto, TFS) for 5 minutes. Membranes were then immediately imaged using a BioRad Chemidoc.
On the technique in general: A western blot detects proteins with antibodies after separation by electrophoresis.

The target of experiment [3] is EGFR Exon20NPG (Homo sapiens (Human), UniProt P00533, INS770NPG). Briefly: TR-FRET assay for ERBB kinases. The experiment is classed as biochemical. As to conditions: geometric mean if measured more than once. In outline:
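Phosphorylation of fluorescein-labeled poly-GluTyr read as TR-FRET using Tb-pY20 antibody after EDTA stop, with 340 nm excitation. Kinase reaction ran 10 min at room temperature following 10 min compound pre-incubation; substrate mix held 3 mM ATP and 30 µM peptide before addition. Buffer was HEPES pH 7.5.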
Background: Time-resolved FRET reads energy transfer from a long-lived donor to a nearby acceptor.

For experiment [4], the target named is EGFR WT (Homo sapiens (Human), UniProt P00533). Briefly: TR-FRET assay for ERBB kinases. The experiment is classed as biochemical. The following applies: geometric mean if measured more than once. The method, boiled down: (§2)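 Three-fold DMSO dilution series of each compound is diluted 10-fold into HEPES buffer (pH 7.5, NaCl, MgCl2, DTT, Pluronic). Enzyme is added for a 10 min pre-incubation. ATP/peptide mix (3 mM ATP, 30 uM substrate as added) starts a 10 min room-temperature reaction, halted with EDTA and Tb antibody.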

The target of experiment [5] is EGFR L858R/T790M (Homo sapiens (Human), UniProt P00533, L858R/T790M). In words: TR-FRET assay for ERBB kinases. The following applies: geometric mean if measured more than once. Type of experiment: biochemical. In outline:
as §2

The target of experiment [6] is EGFR L858R/T790M/C797S (Homo sapiens (Human), UniProt P00533, C797S/L858R/T790M). In words: TR-FRET assay for ERBB kinases. The experiment is classed as biochemical. The following applies: geometric mean if measured more than once. In outline:
as §2

SMILES strings stand for the structures.

EGFR Exon20NPG, sequence (P00533 other isoform, or with tags, fused parts or gaps del 1-694/ins NPG behind 770 limits assumed): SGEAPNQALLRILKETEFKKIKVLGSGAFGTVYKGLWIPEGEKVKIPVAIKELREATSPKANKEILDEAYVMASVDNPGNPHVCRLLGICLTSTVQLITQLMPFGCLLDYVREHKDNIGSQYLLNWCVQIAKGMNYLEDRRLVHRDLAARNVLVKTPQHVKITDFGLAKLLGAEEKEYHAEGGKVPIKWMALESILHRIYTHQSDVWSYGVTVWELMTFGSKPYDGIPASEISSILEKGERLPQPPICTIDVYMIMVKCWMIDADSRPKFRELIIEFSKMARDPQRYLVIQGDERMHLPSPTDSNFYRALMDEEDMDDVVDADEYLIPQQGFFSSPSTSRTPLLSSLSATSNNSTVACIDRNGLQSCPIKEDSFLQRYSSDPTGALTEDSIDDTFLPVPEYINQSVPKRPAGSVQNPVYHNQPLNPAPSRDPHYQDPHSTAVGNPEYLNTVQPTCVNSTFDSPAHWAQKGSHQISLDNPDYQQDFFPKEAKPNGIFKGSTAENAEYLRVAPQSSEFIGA
EGFR L858R/T790M/C797S triple mutant (H520*), sequence (P00533 25-1210 T790M/C797S/L858R): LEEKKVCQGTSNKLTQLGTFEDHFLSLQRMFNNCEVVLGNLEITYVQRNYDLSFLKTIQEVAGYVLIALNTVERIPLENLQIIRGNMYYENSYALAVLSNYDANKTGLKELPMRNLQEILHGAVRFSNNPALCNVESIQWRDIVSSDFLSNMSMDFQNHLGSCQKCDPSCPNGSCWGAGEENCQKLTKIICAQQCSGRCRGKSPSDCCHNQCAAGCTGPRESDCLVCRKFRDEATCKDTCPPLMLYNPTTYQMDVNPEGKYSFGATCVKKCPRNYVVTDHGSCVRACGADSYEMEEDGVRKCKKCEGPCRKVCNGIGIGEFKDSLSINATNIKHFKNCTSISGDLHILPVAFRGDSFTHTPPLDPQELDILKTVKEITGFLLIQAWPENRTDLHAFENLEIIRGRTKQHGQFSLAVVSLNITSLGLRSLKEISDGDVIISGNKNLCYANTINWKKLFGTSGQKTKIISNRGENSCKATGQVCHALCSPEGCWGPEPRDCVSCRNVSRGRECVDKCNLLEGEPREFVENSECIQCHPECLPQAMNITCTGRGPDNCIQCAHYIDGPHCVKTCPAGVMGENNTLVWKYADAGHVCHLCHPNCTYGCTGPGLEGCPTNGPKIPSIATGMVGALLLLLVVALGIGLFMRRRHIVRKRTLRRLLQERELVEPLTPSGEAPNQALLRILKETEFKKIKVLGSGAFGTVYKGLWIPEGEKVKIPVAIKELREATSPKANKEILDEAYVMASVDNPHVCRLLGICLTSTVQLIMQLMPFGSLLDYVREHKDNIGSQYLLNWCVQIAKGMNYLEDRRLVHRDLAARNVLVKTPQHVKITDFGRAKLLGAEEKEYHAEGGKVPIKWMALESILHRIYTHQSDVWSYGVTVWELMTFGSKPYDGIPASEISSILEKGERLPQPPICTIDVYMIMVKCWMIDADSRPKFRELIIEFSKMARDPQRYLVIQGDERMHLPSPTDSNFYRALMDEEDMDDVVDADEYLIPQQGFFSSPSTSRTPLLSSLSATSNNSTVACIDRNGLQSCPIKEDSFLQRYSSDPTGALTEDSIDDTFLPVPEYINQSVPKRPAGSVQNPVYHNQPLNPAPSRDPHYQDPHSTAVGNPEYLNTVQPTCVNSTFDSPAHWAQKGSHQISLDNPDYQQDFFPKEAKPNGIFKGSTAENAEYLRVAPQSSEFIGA
EGFR L858R/T790M/C797S, sequence (P00533 25-1210 T790M/C797S/L858R): as above
EGFR WT, sequence (P00533 25-1210): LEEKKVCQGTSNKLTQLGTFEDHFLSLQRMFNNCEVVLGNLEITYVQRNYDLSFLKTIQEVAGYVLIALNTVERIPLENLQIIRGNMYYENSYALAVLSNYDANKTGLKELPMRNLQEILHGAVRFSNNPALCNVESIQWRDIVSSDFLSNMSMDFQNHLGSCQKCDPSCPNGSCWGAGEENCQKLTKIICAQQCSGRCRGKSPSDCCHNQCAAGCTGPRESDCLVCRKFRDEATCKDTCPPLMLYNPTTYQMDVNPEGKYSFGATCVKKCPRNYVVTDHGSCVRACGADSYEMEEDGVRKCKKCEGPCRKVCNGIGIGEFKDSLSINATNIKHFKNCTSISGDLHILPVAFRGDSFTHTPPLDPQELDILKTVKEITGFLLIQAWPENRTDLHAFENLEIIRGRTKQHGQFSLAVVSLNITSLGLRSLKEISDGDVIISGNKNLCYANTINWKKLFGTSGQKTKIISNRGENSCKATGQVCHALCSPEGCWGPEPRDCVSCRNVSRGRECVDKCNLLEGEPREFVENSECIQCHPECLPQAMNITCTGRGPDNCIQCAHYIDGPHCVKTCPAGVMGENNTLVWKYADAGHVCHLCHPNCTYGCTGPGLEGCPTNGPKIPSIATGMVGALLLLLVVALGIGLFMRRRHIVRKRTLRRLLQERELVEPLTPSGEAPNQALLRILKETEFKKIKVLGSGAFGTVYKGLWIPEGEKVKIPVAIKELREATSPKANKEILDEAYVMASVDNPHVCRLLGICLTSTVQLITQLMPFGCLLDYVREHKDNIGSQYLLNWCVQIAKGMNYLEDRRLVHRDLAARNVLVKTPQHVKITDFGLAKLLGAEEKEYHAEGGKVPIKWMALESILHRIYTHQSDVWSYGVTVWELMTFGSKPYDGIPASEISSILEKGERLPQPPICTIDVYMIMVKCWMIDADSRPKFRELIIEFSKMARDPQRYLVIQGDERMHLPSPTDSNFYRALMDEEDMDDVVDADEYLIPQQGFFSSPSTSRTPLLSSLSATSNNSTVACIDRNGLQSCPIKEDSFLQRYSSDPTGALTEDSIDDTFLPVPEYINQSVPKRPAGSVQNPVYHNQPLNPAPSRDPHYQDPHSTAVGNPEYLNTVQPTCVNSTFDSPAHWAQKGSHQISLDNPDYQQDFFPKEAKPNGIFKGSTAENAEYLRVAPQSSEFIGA

On to `O=C1CCC(N2C(=O)c3ccc(OCCOCCOCC#Cc4cccc5c4C(=O)N([C@@H](C(=O)Nc4nccs4)c4cc(F)ccc4O)C5)cc3C2=O)C(=O)N1` (stereo partly drawn) [compound 261], for which, in experiment [1], the “EGFR protein remaining, EGFR L858R/T790M double mutant” value was “C (>80% EGFR protein remaining after 72 hours of incubation with the test compound at a concentration of 300 nM)”. In experiment [2], the “EGFR protein remaining, EGFR L858R/T790M/C797S triple mutant” value was “C (>80% EGFR protein remaining after 72 hours of incubation with the test compound at a concentration of 300 nM)”. The IC50 (as a rule, the concentration that gives 50% inhibition) is 4.9 µM in experiment [3], 2.2 µM in experiment [4], 3.5 µM in experiment [5] and 0.18 µM in experiment [6].

As to `Cc1ncsc1-c1ccc(CNC(=O)[C@@H]2C[C@@H](O)CN2C(=O)[C@H](C(C)C)N2Cc3ccccc3C2=O)c(OCCOCCOCC#Cc2cccc3c2C(=O)N([C@@H](C(=O)Nc2nccs2)c2cc(F)ccc2O)C3)c1` (single isomer, unassigned) [Example 256], in experiment [1], the “EGFR protein remaining, EGFR L858R/T790M double mutant” value is recorded as “C (>80% EGFR protein remaining after 72 hours of incubation with the test compound at a concentration of 300 nM)”. For the same compound, in experiment [2], the “EGFR protein remaining, EGFR L858R/T790M/C797S triple mutant” value is “C (>80% EGFR protein remaining after 72 hours of incubation with the test compound at a concentration of 300 nM)”. The IC50 in experiment [3] came to 6.1 µM; in experiment [4], 2.5 µM; in experiment [5] it was 14 µM; in experiment [6], 1.4 µM.

As for `O=C1CCC(N2C(=O)c3cccc(NCCOCCOCCOCCOCC#Cc4cccc5c4C(=O)N([C@@H](C(=O)Nc4nccs4)c4cc(F)ccc4O)C5)c3C2=O)C(=O)N1` (stereo partly drawn) [compound 266], in experiment [1], the “EGFR protein remaining, EGFR L858R/T790M double mutant” value is recorded as “C (>80% EGFR protein remaining after 72 hours of incubation with the test compound at a concentration of 300 nM)”. Further, the “EGFR protein remaining, EGFR L858R/T790M/C797S triple mutant” value in experiment [2] is reported as “C (>80% EGFR protein remaining after 72 hours of incubation with the test compound at a concentration of 300 nM)”. For the same compound, the IC50 is more than 30 µM in experiment [3], 10 µM in experiment [4], more than 30 µM in experiment [5] and 2.6 µM in experiment [6].

Consider `Cc1ncsc1-c1ccc([C@H](C)NC(=O)[C@H]2C[C@H](O)CN2C(=O)[C@@H](NC(=O)COCCCOCCCC#Cc2cccc3c2C(=O)N(C(C(=O)Nc2nccs2)c2cc(F)ccc2O)C3)C(C)(C)C)cc1` (stereo partly drawn) [compound 93], for which, in experiment [1], the “EGFR protein remaining, EGFR L858R/T790M double mutant” value was “C (>80% EGFR protein remaining after 72 hours of incubation with the test compound at a concentration of 300 nM)”. Also, in experiment [2], the “EGFR protein remaining, EGFR L858R/T790M/C797S triple mutant” value is listed as “C (>80% EGFR protein remaining after 72 hours of incubation with the test compound at a concentration of 300 nM)”. Further, the IC50 in experiment [3] is 3.3 µM; in experiment [4], 11 µM; in experiment [5] it was 3.5 µM; in experiment [6] it was 0.53 µM.

Turning to `Cc1ncsc1-c1ccc(CNC(=O)[C@@H]2C[C@@H](O)CN2C(=O)[C@@H](NC(=O)COCCOCCOCCOCC#Cc2cccc3c2C(=O)N(C(C(=O)Nc2nccs2)c2cc(F)ccc2O)C3)C(C)(C)C)cc1` (stereo partly drawn) [compound 254], the “EGFR protein remaining, EGFR L858R/T790M double mutant” value in experiment [1] is on record as “C (>80% EGFR protein remaining after 72 hours of incubation with the test compound at a concentration of 300 nM)”. For the same compound, the “EGFR protein remaining, EGFR L858R/T790M/C797S triple mutant” value in experiment [2] was “C (>80% EGFR protein remaining after 72 hours of incubation with the test compound at a concentration of 300 nM)”. Further, the IC50 in experiment [3] stood at 5.7 µM; in experiment [4], 1.1 µM; in experiment [5], 1 µM; in experiment [6] it was 0.1 µM.

With `O=C1CCC(N2C(=O)c3ccc(OCCOCCOCCOCCOCC#Cc4cccc5c4C(=O)N([C@@H](C(=O)Nc4nccs4)c4cc(F)ccc4O)C5)cc3C2=O)C(=O)N1` (stereo partly drawn) [compound 262], in experiment [1], the “EGFR protein remaining, EGFR L858R/T790M double mutant” value is recorded as “C (>80% EGFR protein remaining after 72 hours of incubation with the test compound at a concentration of 300 nM)”. For the same compound, the “EGFR protein remaining, EGFR L858R/T790M/C797S triple mutant” value in experiment [2] is listed as “C (>80% EGFR protein remaining after 72 hours of incubation with the test compound at a concentration of 300 nM)”. The IC50 is 7.4 µM in experiment [3], 3.7 µM in experiment [4], 0.43 µM in experiment [5] and 0.25 µM in experiment [6].

On to `Cc1ncsc1-c1ccc([C@H](C)NC(=O)[C@H]2C[C@H](O)CN2C(=O)[C@@H](NC(=O)COCCCC#Cc2cccc3c2C(=O)N(C(C(=O)Nc2nccs2)c2cc(F)ccc2O)C3)C(C)(C)C)cc1` (stereo partly drawn) [compound 92], for which, in experiment [1], the “EGFR protein remaining, EGFR L858R/T790M double mutant” value is recorded as “C (>80% EGFR protein remaining after 72 hours of incubation with the test compound at a concentration of 300 nM)”. For the same compound, the “EGFR protein remaining, EGFR L858R/T790M/C797S triple mutant” value in experiment [2] is “C (>80% EGFR protein remaining after 72 hours of incubation with the test compound at a concentration of 300 nM)”. Further, the IC50 in experiment [3] amounted to 3.1 µM; in experiment [4], 9.8 µM; in experiment [5] it was 6.2 µM; in experiment [6], 1.1 µM.

Regarding `Cc1ncsc1-c1ccc(CNC(=O)[C@@H]2C[C@@H](O)CN2C(=O)[C@H](C(C)C)N2Cc3ccccc3C2=O)c(OCCOCCOCC#Cc2cccc3c2C(=O)N([C@@H](C(=O)Nc2nccs2)c2cc(F)ccc2O)C3)c1` (single isomer, unassigned) [Example 257], the “EGFR protein remaining, EGFR L858R/T790M double mutant” value in experiment [1] is “C (>80% EGFR protein remaining after 72 hours of incubation with the test compound at a concentration of 300 nM)”. For the same compound, the “EGFR protein remaining, EGFR L858R/T790M/C797S triple mutant” value in experiment [2] is “C (>80% EGFR protein remaining after 72 hours of incubation with the test compound at a concentration of 300 nM)”. Besides, the half-maximal inhibitory concentration (IC50) in experiment [3] is more than 30 µM; in experiment [4] it was 5.7 µM; in experiment [5] it was more than 30 µM; in experiment [6], 2.7 µM.

Take `Cc1ncsc1-c1ccc(CNC(=O)[C@@H]2C[C@@H](O)CN2C(=O)[C@H](C(C)C)N2Cc3ccccc3C2=O)c(OCCOCCOCCOCC#Cc2cccc3c2C(=O)N([C@@H](C(=O)Nc2nccs2)c2cc(F)ccc2O)C3)c1` [compound 258]: in experiment [1], the “EGFR protein remaining, EGFR L858R/T790M double mutant” value is reported as “C (>80% EGFR protein remaining after 72 hours of incubation with the test compound at a concentration of 300 nM)”. Further, the “EGFR protein remaining, EGFR L858R/T790M/C797S triple mutant” value in experiment [2] was “C (>80% EGFR protein remaining after 72 hours of incubation with the test compound at a concentration of 300 nM)”. Further, the IC50 in experiment [3] was 4.9 µM; in experiment [4] it was 1.7 µM; in experiment [5] it was 5.9 µM; in experiment [6], 4 µM.

Turning to `Cc1ncsc1-c1ccc(CNC(=O)[C@@H]2C[C@@H](O)CN2C(=O)[C@H](C(C)C)N2Cc3ccccc3C2=O)c(OCCOCCOCCOCCOCCOCC#Cc2cccc3c2C(=O)N([C@@H](C(=O)Nc2nccs2)c2cc(F)ccc2O)C3)c1` [compound 260], the “EGFR protein remaining, EGFR L858R/T790M double mutant” value in experiment [1] is recorded as “C (>80% EGFR protein remaining after 72 hours of incubation with the test compound at a concentration of 300 nM)”. Also, in experiment [2], the “EGFR protein remaining, EGFR L858R/T790M/C797S triple mutant” value is listed as “C (>80% EGFR protein remaining after 72 hours of incubation with the test compound at a concentration of 300 nM)”. The IC50 is more than 30 µM in experiment [3], 3.2 µM in experiment [4], 20 µM in experiment [5] and 0.56 µM in experiment [6].
